What was measured:
[1] = biological target: PI3K-δ (PI3K(p1108/p857) (h)) (Homo sapiens, UniProt O00329); assay: Evaluation of inhibitory activity against PI3K-δ (HTRF kinase assay); assay type: biochemical; details: compound concentration 0.01 μM; read-out: EXP_VALUE(% Inhibition) PI3K-δ 0.01 μM
Procedure, shortened: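 HTRF read-out (665/620 nm ratio ×10000) used Eu-labelled anti-GST, GST-tagged GRP1 PH domain and streptavidin-allophycocyanin after EDTA/PIP3 stop.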

[2] = biological target: DNA-PK(h) (Homo sapiens, UniProt P78527); assay: Evaluation of inhibitory activity against DNA-PK (HTRF kinase assay, GST-cMyc-p53 substrate); assay type: biochemical; details: compound concentration 0.01 μM; read-out: EXP_VALUE(% Inhibition) DNA-PK(h) 0.01 μM
Procedure, shortened: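 p53 Ser15 phosphorylation by human DNA-PK was measured by time-resolved FRET ratio (665/620 nm ×10000) using Eu-labelled anti-phospho-Ser15 and d2 anti-GST antibodies. Substrate GST-cMyc-p53 at 50 μM; Mg/ATP-initiated, 30 min at room temperature, EDTA stop.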

Chain of PI3K-δ (PI3K(p1108/p857) (h)) (O00329 whole entry, the tested form may be a part): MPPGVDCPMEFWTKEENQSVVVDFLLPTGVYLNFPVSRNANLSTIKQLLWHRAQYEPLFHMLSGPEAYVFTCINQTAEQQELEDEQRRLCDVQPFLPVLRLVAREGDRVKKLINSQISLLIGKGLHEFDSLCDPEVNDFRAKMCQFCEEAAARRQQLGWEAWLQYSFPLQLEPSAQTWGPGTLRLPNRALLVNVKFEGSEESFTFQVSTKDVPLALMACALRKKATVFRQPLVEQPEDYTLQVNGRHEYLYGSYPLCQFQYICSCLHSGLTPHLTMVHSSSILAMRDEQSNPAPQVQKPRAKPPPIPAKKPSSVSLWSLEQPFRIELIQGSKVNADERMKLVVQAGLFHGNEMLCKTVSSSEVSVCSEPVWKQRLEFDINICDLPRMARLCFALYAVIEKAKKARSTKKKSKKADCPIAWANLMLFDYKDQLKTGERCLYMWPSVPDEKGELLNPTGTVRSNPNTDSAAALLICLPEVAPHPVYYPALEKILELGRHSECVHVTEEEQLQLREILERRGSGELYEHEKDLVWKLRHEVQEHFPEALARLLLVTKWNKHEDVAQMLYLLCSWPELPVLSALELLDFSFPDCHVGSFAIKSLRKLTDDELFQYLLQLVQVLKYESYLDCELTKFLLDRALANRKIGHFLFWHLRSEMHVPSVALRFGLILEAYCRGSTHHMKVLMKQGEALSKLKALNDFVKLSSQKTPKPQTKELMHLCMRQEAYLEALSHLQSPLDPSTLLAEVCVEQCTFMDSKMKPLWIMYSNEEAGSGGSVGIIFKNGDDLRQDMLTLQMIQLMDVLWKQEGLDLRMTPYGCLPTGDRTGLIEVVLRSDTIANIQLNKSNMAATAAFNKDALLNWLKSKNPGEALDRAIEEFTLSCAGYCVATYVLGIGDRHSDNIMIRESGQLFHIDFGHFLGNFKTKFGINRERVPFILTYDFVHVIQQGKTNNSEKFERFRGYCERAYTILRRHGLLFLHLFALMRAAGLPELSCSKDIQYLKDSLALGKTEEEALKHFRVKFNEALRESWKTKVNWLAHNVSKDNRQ
Chain of PI3K-δ (PI3K(p1108/p857) (h)) (P27986 whole entry partner, the tested form may be a part): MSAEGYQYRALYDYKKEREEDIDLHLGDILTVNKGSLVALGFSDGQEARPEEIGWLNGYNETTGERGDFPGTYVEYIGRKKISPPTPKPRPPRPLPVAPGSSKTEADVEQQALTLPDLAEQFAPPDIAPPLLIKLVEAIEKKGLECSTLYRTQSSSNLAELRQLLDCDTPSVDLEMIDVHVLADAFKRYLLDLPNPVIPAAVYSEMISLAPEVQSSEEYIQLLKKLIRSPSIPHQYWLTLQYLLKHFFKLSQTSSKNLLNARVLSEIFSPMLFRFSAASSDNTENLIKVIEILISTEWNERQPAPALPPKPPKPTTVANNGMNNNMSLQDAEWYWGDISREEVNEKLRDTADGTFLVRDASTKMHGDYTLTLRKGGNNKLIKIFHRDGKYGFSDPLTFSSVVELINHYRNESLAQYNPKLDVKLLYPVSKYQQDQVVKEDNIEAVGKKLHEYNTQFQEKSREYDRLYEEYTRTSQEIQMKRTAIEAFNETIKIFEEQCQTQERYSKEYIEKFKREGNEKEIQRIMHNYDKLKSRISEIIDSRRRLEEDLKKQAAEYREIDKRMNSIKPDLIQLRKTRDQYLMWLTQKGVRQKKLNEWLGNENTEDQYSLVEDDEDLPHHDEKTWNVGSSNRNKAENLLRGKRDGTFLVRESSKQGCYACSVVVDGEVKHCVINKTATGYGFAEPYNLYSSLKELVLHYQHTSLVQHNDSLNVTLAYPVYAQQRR

| SMILES | inhibition at 0.01 µM [1] [%] | inhibition at 0.01 µM [2] [%] |
| --- | --- | --- |
| C[C@H](Nc1ncnc2[nH]ccc(=O)c12)c1c(Cl)c2cccc(-c3ccc(CN4CCOCC4)cc3F)c2c(=O)n1-c1ccccc1 [Example 231, (S)-4-((1-(4-chloro-8-(2-fluoro-4-(morpholinomethyl)phenyl)-1-oxo-2-phenyl-1,2-dihydroisoquinolin-3-yl)ethyl)amino)pyrido[2,3-d]pyrimidin-5(8H)-one] | 44 | 67 |
| COc1ncc(-c2cccc3c(Cl)c([C@H](C)Nc4ncnc5[nH]ccc(=O)c45)n(-c4ccccc4)c(=O)c23)cc1NS(=O)(=O)c1ccc(F)cc1F [Example 232, (S)—N-(5-(4-chloro-1-oxo-3-(1-((5-oxo-5,8-dihydropyrido[2,3-d]pyrimidin-4-yl)amino)ethyl)-2-phenyl-1,2-dihydroisoquinolin-8-yl)-2-methoxypyridin-3-yl)-2,4-difluorobenzenesulfonamide] | 23 | 15 |
| C[C@H](Nc1ncnc2[nH]ccc(=O)c12)c1c(Cl)c2cccc(-c3ccc4nsnc4c3)c2c(=O)n1-c1ccccc1 [Example 233, (S)-4-((1-(8-(benzo[c][1,2,5]thiadiazol-5-yl)-4-chloro-1-oxo-2-phenyl-1,2-dihydroisoquinolin-3-yl)ethyl)amino)pyrido[2,3-d]pyrimidin-5(8H)-one] | 77 | 60 |
| Cc1cc(-c2cccc3c(Cl)c([C@H](C)Nc4ncnc5[nH]ccc(=O)c45)n(-c4ccccc4)c(=O)c23)n[nH]1 [Example 234, (S)-4-((1-(4-chloro-8-(5-methyl-1H-pyrazol-3-yl)-1-oxo-2-phenyl-1,2-dihydroisoquinolin-3-yl)ethyl)amino)pyrido[2,3-d]pyrimidin-5(8H)-one] | 85 | 50 |
| C[C@H](Nc1ncnc2[nH]ccc(=O)c12)c1c(Cl)c2cccc(-c3cnc4nonc4c3)c2c(=O)n1-c1ccccc1 [Example 235, (S)-4-((1-(8-([1,2,5]oxadiazolo[3,4-b]pyridin-6-yl)-4-chloro-1-oxo-2-phenyl-1,2-dihydroisoquinolin-3-yl)ethyl)amino)pyrido[2,3-d]pyrimidin-5(8H)-one] | 80 | 46 |
| C[C@H](Nc1ncnc2[nH]ccc(=O)c12)c1c(Cl)c2cccc(-c3ccc4[nH]ncc4c3)c2c(=O)n1-c1ccccc1 [Example 236, (S)-4-((1-(4-chloro-8-(1H-indazol-5-yl)-1-oxo-2-phenyl-1,2-dihydroisoquinolin-3-yl)ethyl)amino)pyrido[2,3-d]pyrimidin-5(8H)-one] | 79 | 46 |
| C[C@H](Nc1ncnc2[nH]ccc(=O)c12)c1c(Cl)c2cccc(-c3cccc4c3cnn4C)c2c(=O)n1-c1ccccc1 [Example 237, (S)-4-((1-(4-chloro-8-(1-methyl-1H-indazol-4-yl)-1-oxo-2-phenyl-1,2-dihydroisoquinolin-3-yl)ethyl)amino)pyrido[2,3-d]pyrimidin-5(8H)-one] | 85 | 29 |
| C[C@H](Nc1ncnc2[nH]ccc(=O)c12)c1c(Cl)c2cccc(-c3cnoc3)c2c(=O)n1-c1ccccc1 [Example 238, (S)-4-((1-(4-chloro-8-(isoxazol-4-yl)-1-oxo-2-phenyl-1,2-dihydroisoquinolin-3-yl)ethyl)amino)pyrido[2,3-d]pyrimidin-5(8H)-one] | 15 | 15 |
| C[C@H](Nc1ncnc2[nH]ccc(=O)c12)c1c(Cl)c2cccc(-c3cccc4cn[nH]c34)c2c(=O)n1-c1ccccc1 [Example 239, (S)-4-((1-(4-chloro-8-(1H-indazol-7-yl)-1-oxo-2-phenyl-1,2-dihydroisoquinolin-3-yl)ethyl)amino)pyrido[2,3-d]pyrimidin-5(8H)-one] | 38 | 10 |

From patent US20230072683A1, “PYRIDO-PYRIMIDIN DERIVATIVES AND PHARMACEUTICAL COMPOSITION, FOR USE IN PREVENTING OR TREATING PI3 KINASE RELATED DISEASES, COMPRISING SAME AS ACTIVE INGREDIENT” (BORYUNG PHARMACEUTICAL CO., LTD, priority 2019, published 2023)
